Measured values taken from US6416949B1, “Method of synthesizing diverse collections of oligomers” (Affymax, Inc., priority 1991, dated 2002).

Assays:
Monoclonal antibody 3E7 [1] = experiment: magnetic selection of peptide beads by microbead-conjugated 3E7, analysed by flow cytometry; format: binding; settings: 16 hr incubation at 4 degrees C in PBS, high strength magnet
Experimental: After a 16 hr incubation at 4 degrees C, beads which bind the 3E7 antibody are selected using a high strength magnet. The selected beads are then analyzed by flow cytometry.

Monoclonal antibody 3E7 [2] = experiment: staining of peptide beads with fluorescently labeled antibody 3E7 and FACS sorting; format: binding; settings: peptide on oligonucleotide-tagged beads
Experimental: The beads coupled with the 95 mer and YGGFL were mixed with the beads that were coupled to the 110 mer and F in the ratio of 1:20. Thus, 0.1 mg of 95 mer/YGGFL beads (2 million beads) were mixed with 2.0 mg of the 110 mer/Phe beads (40 million beads). The mixture was suspended in blocking buffer (PBS, 1% BSA, and 0.05% Tween-20) and incubated at room temperature for 1 hr. The beads were next pelleted by centrifugation and resuspended in a solution of an FITC-labeled monoclonal antibody 3E7 that binds the peptide YGGFL (1 μg/mL). The suspension was incubated 0.5 hr on ice and then centrifuged to isolate the bead pellet.
The beads were resuspended in PBS for delivery into the fluorescence activated cell sorting (FACS) instrument (Becton Dickinson FACSORT Plus). Beads that had bound to the fluorescently labeled antibody were identified by their acquired fluorescence, and fluorescent beads were isolated by sorting into PCR tubes. One, ten, or one hundred fluorescent beads were sorted into each PCR tube. […]
The beads were resuspended in PBS for delivery into the fluorescence activated cell sorting (FACS) instrument (Becton Dickinson FACSORT Plus). Beads that had bound to the fluorescently labeled antibody were identified by their acquired fluorescence (see FIG. 10), and homogeneous samples of either fluorescent or non-fluorescent beads were isolated by sorting into PCR tubes. […]

Monoclonal antibody 3E7 [3] = settings: solution assay, MAb 3E7; read-out: equilibrium binding constant (Kd); cited from earlier work

Substance: pentapeptide L-Tyr-Gly-Gly-L-Phe-L-Leu, ligand of monoclonal antibody 3E7 [YGGFL]
- selection of peptide-bearing beads by 3E7 antibody (Monoclonal antibody 3E7 [1]): only beads displaying the peptide YGGFL are selected
- binding of the peptide by fluorescently labeled antibody 3E7 (Monoclonal antibody 3E7 [2]): high affinity
- Kd (Monoclonal antibody 3E7 [3]): 6.6 nM
